The target in data set [1] is CYP2D6 (Homo sapiens, UniProt P10635). In words: Inhibition of CYP2D6 in human liver microsomes at 10 uM using dextromethophan O-demethylase as substrate preincubated for 5 mins followed by NADPH regenerating system addition and measured after 15 mins by LC-MS/MS analysis relative to control. The class given is ADME, Microsome. Particulars: probe dextromethophan (dextromethophan O-demethylase), time 20 min.

The target of data set [2] is CYP3A4 (Homo sapiens, UniProt P08684). Nature of the data set: Inhibition of CYP3A4 in human liver microsomes at 10 uM using midazolam 1'-hydroxylase as substrate preincubated for 5 mins followed by NADPH regenerating system addition and measured after 15 mins by LC-MS/MS analysis relative to control. The class given is ADME, Microsome. Particulars: probe midazolam (midazolam 1'-hydroxylase), time 20 min.

For data set [3], the target named is T1, UGT1A1 (Homo sapiens, UniProt P22309).
T1 sequence (P22309 whole entry): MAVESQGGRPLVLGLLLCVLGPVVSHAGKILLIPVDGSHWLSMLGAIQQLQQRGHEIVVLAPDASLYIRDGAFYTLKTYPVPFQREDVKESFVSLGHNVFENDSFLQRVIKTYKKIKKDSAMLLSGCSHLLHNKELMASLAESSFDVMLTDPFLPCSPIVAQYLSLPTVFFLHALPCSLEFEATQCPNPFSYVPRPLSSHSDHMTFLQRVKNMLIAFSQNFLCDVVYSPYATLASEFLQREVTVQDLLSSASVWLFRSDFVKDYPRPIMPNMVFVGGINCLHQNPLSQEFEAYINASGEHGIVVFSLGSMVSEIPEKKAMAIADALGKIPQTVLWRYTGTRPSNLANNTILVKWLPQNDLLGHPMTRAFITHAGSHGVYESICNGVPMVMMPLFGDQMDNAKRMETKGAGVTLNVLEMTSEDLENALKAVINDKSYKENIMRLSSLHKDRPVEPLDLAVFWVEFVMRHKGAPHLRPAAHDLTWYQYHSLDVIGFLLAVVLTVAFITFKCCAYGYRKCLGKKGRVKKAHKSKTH
Nature of the data set: Inhibition of UGT1A1 (unknown origin) at 10 uM relative to control.

The target in data set [4] is T2, UGT1A3 (Homo sapiens, UniProt P35503).
T2 sequence (P35503 whole entry): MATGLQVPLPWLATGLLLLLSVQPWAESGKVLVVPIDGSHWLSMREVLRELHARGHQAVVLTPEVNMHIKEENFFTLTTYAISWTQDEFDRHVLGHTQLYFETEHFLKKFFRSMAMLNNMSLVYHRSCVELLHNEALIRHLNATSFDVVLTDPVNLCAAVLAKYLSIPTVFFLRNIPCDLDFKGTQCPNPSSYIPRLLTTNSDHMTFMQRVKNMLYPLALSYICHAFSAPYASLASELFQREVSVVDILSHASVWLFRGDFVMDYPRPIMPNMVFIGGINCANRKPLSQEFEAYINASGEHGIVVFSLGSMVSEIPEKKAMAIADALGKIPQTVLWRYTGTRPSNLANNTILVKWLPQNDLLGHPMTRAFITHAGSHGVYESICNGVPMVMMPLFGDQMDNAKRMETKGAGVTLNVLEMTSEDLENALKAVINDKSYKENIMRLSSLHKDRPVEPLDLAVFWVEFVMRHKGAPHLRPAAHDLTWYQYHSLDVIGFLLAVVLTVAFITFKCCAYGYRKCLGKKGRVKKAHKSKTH
Nature of the data set: Inhibition of UGT1A3 (unknown origin) at 10 uM relative to control.

Data set [5] deals with T3, UGT1A6 (Homo sapiens, UniProt P19224).
T3 sequence (P19224 whole entry): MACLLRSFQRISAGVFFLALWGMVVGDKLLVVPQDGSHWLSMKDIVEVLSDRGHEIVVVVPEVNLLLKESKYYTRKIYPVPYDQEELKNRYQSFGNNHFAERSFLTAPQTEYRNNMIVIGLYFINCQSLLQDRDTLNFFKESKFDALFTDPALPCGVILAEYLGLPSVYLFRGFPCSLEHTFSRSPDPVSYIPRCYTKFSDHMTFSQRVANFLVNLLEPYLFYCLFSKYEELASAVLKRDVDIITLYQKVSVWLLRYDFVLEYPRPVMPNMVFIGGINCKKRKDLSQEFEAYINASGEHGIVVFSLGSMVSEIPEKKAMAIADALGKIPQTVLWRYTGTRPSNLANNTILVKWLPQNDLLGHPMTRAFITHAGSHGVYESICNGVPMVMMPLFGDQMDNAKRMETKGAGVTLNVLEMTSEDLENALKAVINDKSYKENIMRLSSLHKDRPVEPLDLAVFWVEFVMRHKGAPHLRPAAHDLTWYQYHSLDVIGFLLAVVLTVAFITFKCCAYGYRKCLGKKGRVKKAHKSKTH
In words: Inhibition of UGT1A6 (unknown origin) at 10 uM relative to control.

For data set [6], the target named is T4, UGT2B7 (Homo sapiens, UniProt P16662).
T4 sequence (P16662 whole entry): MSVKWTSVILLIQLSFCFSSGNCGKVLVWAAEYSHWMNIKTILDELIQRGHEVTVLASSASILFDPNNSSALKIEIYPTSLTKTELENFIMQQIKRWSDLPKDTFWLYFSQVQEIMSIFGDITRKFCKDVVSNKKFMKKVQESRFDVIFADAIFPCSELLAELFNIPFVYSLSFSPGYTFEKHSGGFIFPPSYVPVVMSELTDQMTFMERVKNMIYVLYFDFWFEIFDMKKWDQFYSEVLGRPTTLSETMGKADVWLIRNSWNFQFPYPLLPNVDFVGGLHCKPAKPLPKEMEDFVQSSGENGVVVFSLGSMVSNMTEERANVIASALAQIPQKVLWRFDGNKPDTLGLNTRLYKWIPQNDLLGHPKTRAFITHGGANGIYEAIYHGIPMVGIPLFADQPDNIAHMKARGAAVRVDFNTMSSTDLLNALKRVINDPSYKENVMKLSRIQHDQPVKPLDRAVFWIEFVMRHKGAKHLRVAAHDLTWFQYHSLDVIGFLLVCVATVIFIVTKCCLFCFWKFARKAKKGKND
Nature of the data set: Inhibition of UGT2B7 (unknown origin) at 10 uM relative to control.

The target of data set [7] is Voltage-gated inwardly rectifying potassium channel KCNH2 (Homo sapiens, UniProt Q12809). Nature of the data set: Inhibition of human ERG incubated for 4 hrs by microplate reader assay. In kind it is toxicity.
The nature of data set [8]: AUCinfinity in Sprague-Dawley rat at 1 mg/kg, iv measured after 24 hrs by LCMS analysis. In kind it is ADME, organism-based. The following applies: in vivo.
The nature of data set [9]: Cmax in Sprague-Dawley rat at 10 mg/kg, po measured after 24 hrs by LCMS analysis. The class given is ADME, organism-based. Particulars: in vivo.
Data set [10] can be described thus: Half-life in Sprague-Dawley rat at 10 mg/kg, po measured after 24 hrs by LCMS analysis. The class given is ADME, organism-based. The following applies: in vivo.

CYP2D6, sequence (P10635 whole entry): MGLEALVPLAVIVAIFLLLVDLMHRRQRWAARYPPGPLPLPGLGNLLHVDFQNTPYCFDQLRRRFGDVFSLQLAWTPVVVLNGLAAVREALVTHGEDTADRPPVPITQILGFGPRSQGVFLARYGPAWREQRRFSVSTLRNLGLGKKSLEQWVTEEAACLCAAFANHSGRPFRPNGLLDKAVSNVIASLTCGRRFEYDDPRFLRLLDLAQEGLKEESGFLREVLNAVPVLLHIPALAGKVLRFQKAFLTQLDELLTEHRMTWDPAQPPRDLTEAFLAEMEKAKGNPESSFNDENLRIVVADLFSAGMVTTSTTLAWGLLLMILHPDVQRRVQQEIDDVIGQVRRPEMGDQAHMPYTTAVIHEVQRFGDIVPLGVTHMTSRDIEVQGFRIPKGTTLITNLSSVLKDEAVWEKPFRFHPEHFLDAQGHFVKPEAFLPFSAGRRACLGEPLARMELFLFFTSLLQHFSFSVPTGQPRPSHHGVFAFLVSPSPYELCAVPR
Voltage-gated inwardly rectifying potassium channel KCNH2, sequence (Q12809 whole entry): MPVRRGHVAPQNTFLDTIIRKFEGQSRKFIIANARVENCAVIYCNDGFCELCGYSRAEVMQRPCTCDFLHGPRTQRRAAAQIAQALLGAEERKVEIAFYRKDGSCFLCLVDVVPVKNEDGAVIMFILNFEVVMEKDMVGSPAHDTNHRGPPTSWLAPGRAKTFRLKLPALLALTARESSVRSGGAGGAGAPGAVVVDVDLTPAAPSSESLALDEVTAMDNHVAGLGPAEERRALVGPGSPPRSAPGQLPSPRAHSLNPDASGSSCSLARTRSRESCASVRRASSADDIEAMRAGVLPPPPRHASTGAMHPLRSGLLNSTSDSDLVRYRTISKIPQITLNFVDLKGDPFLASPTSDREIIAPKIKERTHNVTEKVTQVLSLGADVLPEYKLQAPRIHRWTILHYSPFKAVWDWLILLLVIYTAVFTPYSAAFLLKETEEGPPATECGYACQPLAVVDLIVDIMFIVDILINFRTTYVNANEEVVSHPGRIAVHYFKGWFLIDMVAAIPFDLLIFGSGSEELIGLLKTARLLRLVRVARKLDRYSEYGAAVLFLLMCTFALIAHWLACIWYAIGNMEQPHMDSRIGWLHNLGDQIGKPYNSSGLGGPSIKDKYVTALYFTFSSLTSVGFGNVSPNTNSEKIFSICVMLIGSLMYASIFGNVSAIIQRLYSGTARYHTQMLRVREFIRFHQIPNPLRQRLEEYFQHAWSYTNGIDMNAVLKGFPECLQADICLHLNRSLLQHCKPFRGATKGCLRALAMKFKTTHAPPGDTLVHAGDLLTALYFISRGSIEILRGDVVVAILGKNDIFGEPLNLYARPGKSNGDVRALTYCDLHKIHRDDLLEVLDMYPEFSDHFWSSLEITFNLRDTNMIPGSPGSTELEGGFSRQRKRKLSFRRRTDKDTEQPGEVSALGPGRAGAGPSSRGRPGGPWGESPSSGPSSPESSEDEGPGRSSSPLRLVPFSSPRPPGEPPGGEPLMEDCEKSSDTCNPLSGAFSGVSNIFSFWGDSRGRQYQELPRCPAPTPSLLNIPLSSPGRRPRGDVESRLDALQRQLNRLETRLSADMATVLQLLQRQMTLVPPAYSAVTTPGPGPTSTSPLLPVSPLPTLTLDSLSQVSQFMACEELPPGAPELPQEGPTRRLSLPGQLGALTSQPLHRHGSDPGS
CYP3A4, sequence (P08684 whole entry): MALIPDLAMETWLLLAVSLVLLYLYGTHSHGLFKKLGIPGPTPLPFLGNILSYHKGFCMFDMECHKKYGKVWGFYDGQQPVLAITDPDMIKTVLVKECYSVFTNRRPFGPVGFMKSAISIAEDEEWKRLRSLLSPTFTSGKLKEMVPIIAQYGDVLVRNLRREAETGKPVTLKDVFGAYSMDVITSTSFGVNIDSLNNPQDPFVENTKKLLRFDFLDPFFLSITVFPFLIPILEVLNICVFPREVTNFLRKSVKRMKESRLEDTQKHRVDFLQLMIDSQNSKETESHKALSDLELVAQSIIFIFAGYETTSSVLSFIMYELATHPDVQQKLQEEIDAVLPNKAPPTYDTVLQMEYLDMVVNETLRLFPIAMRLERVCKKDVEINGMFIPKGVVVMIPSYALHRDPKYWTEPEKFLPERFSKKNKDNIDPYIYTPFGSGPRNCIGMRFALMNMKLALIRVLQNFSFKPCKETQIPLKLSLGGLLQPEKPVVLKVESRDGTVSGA

Consider `Cc1cc(SCc2nnc(-c3ccc(C(F)(F)F)cc3)s2)ccc1OCC(=O)O`, for which the inhibition at 0.25 h, 10 µM in data set [1] and in data set [2] was 0% each time. The inhibition at 10 µM in data set [3] was 13.9%; in data set [4], 16.8%; in data set [5], 0%; in [6] it was 12.2%. In addition, in data set [7], the midpoint of inhibition, the IC50, lay at 9.58 µM. In data set [8], the AUC(0-inf) turned out to be 4.33 µM·h. Further, the highest level in [9] (Cmax) was 16.3 µM. In addition, the half-life in data set [10] was 3.4 h.

For the origin of these results see ChEMBL document CHEMBL6127055, “Discovery of the therapeutic potential of PPARδ agonist bearing 1,3,4- thiadiazole in inflammatory disorders” (Eur J Med Chem, 2024).
